Results published in patent US20260274832A1, “COMPOUNDS AND THEIR USE IN TREATING CANCER” (ASTRAZENECA AB, priority 2023, published 2026).

Experiments:
[1] = target: T1, AR (L702H) in LNCaP cells (Homo sapiens, UniProt P10275, L702H/T878A); experiment: LNCaP Androgen Receptor L702H Imaging Assay (LNCaP cells engineered by CRISPR/Cas9); assay type: cell-based; conditions: LNCaP cells with AR L702H mutation, 24 h incubation; for DC50: concentration giving 50% of maximum degradation of AR (L702H) per curve fit; for Dmax: LNCaP, maximum degradation observed, normalized as % of positive control
T1 construct: engineered to introduce the mutation L702H into the AR gene using CRISPR/Cas9; endogenous in cells; host or cells: LNCaP cells edited by CRISPR/Cas9 at the AR gene
T1 sequence (P10275 whole entry L702H/T878A): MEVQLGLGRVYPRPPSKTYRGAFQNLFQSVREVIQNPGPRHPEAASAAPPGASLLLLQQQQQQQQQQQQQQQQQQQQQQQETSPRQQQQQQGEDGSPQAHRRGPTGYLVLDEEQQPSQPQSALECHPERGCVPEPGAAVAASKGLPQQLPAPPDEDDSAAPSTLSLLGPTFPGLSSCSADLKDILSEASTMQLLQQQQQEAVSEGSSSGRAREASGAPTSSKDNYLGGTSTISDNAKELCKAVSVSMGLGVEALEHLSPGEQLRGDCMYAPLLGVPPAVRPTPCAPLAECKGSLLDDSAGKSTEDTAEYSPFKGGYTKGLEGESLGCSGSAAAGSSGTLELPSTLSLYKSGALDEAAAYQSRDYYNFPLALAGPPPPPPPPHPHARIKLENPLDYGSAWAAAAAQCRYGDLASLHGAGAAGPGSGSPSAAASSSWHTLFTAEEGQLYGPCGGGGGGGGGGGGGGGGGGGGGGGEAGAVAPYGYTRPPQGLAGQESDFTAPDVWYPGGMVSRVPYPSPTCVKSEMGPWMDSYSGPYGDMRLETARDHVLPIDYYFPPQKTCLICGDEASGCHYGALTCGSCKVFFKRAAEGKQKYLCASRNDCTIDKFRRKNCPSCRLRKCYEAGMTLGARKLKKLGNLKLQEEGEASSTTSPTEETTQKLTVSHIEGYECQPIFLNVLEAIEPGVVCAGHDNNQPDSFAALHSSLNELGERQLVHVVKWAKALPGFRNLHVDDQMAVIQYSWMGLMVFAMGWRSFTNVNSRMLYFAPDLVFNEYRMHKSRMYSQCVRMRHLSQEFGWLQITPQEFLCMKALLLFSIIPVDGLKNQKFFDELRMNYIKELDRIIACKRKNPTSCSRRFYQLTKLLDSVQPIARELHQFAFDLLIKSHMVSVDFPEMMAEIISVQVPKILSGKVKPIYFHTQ
T1 sequence (Q96SW2 whole entry partner): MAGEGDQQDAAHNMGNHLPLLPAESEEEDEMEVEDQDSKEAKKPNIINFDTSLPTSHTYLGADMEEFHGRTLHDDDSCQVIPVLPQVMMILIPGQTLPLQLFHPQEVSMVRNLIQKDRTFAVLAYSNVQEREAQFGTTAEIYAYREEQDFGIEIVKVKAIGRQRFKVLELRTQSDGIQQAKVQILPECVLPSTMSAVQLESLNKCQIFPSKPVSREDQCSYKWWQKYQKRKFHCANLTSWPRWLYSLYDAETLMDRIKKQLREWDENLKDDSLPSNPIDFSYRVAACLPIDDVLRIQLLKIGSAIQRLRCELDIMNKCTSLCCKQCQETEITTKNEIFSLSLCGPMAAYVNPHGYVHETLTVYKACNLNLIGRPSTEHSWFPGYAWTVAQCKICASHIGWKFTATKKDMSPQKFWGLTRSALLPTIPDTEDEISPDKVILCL
Outline: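 CRISPR-engineered LNCaP cells carrying AR L702H were treated 24 h at 37 °C with a 12-point compound dose response (0.3% DMSO), then fixed and immunostained for AR with DRAQ5 nuclear counterstain. Nuclear AR was quantified by imaging, normalized to positive control; DC50 and Dmax came from Hill or bell-shaped fits.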

[2] = target: T2, AR (AR-full length) in LNCaP cells (Homo sapiens, UniProt P10275, T878A); experiment: LNCaP Androgen Receptor Imaging Assay (immunofluorescence of endogenous nuclear AR); assay type: cell-based; conditions: 24 h incubation; for DC50: concentration giving 50% of maximum degradation of AR per curve fit, single experiment or average of two or more; for Dmax: LNCaP, maximum degradation observed, normalized as % of positive control (prior art AR PROTAC at 3 μM)
T2 construct: the prostate cancer cell line LNCaP (expressing AR-full length); endogenous in cells; host or cells: LNCaP
T2 sequence (P10275 whole entry T878A): as the sequence (P10275 whole entry L702H/T878A) above, with H702L counted along it
T2 sequence (Q96SW2 whole entry partner): as the sequence (Q96SW2 whole entry partner) above
Outline: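 LNCaP cells (12,000/well) received a 12-point compound dose series (0.3% DMSO) for 24 h at 37° C., then were PFA-fixed and stained for AR (AR441) and nuclei (DRAQ5). Nuclear AR was quantified by imaging, normalized to a 3 μM AR PROTAC control; DC50 and Dmax came from Hill/bell curve fits.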

Compound | DC50 [1] [nM] | Dmax [1] [%] | DC50 [2] [nM] | Dmax [2] [%]
N#Cc1c[nH]c2c(N3CCC(NC(=O)c4ccc(N5CCC(CN6CCN(c7cc8c(cc7F)C(=O)N(C7CCC(=O)NC7=O)C8=O)CC6)CC5)cn4)CC3)ccc(Cl)c12 (centres unmarked) [Example 169, N-[1-(4-Chloro-3-cyano-1H-indol-7-yl)piperidin-4-yl]-5-[4-({4-[2-(2,6-dioxopiperidin-3-yl)-6-fluoro-1,3-dioxo-2,3-dihydro-1H-isoindol-5-yl]piperazin-1-yl}methyl)piperidin-1-yl]pyridine-2-carboxamide] | 23 | 94 | 5 | 86
N#Cc1n[nH]c2c(N3CCC(NC(=O)c4ccc(N5CCC(CN6CCC(n7ccc8c(N9CCC(=O)NC9=O)cccc87)CC6)CC5)cn4)CC3)ccc(Cl)c12 [Example 170, N-[1-(4-Chloro-3-cyano-1H-indazol-7-yl)piperidin-4-yl]-5-[4-({4-[4-(2,4-dioxo-1,3-diazinan-1-yl)-1H-indol-1-yl]piperidin-1-yl}methyl)piperidin-1-yl]pyridine-2-carboxamide] | 2 | 101 | 1 | 100
Cc1ccc(N2CCC(NC(=O)c3ccc(N4CCC(CN5CCN(c6cc7c(cc6F)C(=O)N(C6CCC(=O)NC6=O)C7=O)CC5)CC4)cn3)CC2)c2[nH]cc(C#N)c12 (centres unmarked) [Example 171, N-[1-(3-Cyano-4-methyl-1H-indol-7-yl)piperidin-4-yl]-5-[4-({4-[2-(2,6-dioxopiperidin-3-yl)-6-fluoro-1,3-dioxo-2,3-dihydro-1H-isoindol-5-yl]piperazin-1-yl}methyl)piperidin-1-yl]pyridine-2-carboxamide] | 36 | 85 | 5 | 96
Cc1ccc(N2CCC(NC(=O)c3ccc(N4CCC(CN5CCN(c6ccc7c(c6)CN(C6CCC(=O)NC6=O)C7=O)CC5)CC4)cn3)CC2)c2[nH]cc(C#N)c12 (centres unmarked) [Example 172, N-[1-(3-Cyano-4-methyl-1H-indol-7-yl)piperidin-4-yl]-5-[4-({4-[2-(2,6-dioxopiperidin-3-yl)-1-oxo-2,3-dihydro-1H-isoindol-5-yl]piperazin-1-yl}methyl)piperidin-1-yl]pyridine-2-carboxamide] | 4 | 94 | 1 | 94
N#Cc1c[nH]c2c(N3CCC(NC(=O)c4ccc(N5CCC(CN6CCC(n7ccc8c(N9CCC(=O)NC9=O)cccc87)CC6)CC5)cc4)CC3)ccc(Cl)c12 [Example 173, N-[1-(4-Chloro-3-cyano-1H-indol-7-yl)piperidin-4-yl]-4-[4-({4-[4-(2,4-dioxo-1,3-diazinan-1-yl)-1H-indol-1-yl]piperidin-1-yl}methyl)piperidin-1-yl]benzamide] | 2 | 109 | 1 | 102
N#Cc1c[nH]c2c(C3CCC(NC(=O)c4ccc(N5CCC(CN6CCC(n7ccc8c(N9CCC(=O)NC9=O)cccc87)CC6)CC5)cc4F)CC3)ccc(Cl)c12 (centres unmarked) [Example 174, N-[4-(4-Chloro-3-cyano-1H-indol-7-yl)cyclohexyl]-4-[4-({4-[4-(2,4-dioxo-1,3-diazinan-1-yl)-1H-indol-1-yl]piperidin-1-yl}methyl)piperidin-1-yl]-2-fluorobenzamide] | 13 | 104 | 3 | 106
N#Cc1c[nH]c2c(N3CCC(NC(=O)c4c(F)cc(N5CCC(CN6CCC(n7ccc8c(N9CCC(=O)NC9=O)cccc87)CC6)CC5)cc4F)CC3)ccc(Cl)c12 [Example 175, N-[1-(4-Chloro-3-cyano-1H-indol-7-yl)piperidin-4-yl]-4-[4-({4-[4-(2,4-dioxo-1,3-diazinan-1-yl)-1H-indol-1-yl]piperidin-1-yl}methyl)piperidin-1-yl]-2,6-difluorobenzamide] | 1 | 109 | 1 | 107
N#Cc1c[nH]c2c(N3CCC(NC(=O)c4cnc(N5CCC(CN6CCC(n7ccc8c(N9CCC(=O)NC9=O)cccc87)CC6)CC5)cn4)CC3)ccc(Cl)c12 [Example 176, N-[1-(4-Chloro-3-cyano-1H-indol-7-yl)piperidin-4-yl]-5-[4-({4-[4-(2,4-dioxo-1,3-diazinan-1-yl)-1H-indol-1-yl]piperidin-1-yl}methyl)piperidin-1-yl]pyrazine-2-carb oxamide] | 3 | 102 | 1 | 104
N#Cc1c[nH]c2c(N3CCC(NC(=O)c4ncc(N5CCC(CN6CCC(n7ccc8c(N9CCC(=O)NC9=O)cccc87)CC6)CC5)cn4)CC3)ccc(Cl)c12 [Example 177, N-[1-(4-Chloro-3-cyano-1H-indol-7-yl)piperidin-4-yl]-5-[4-({4-[4-(2,4-dioxo-1,3-diazinan-1-yl)-1H-indol-1-yl]piperidin-1-yl}methyl)piperidin-1-yl]pyrimidine-2-carboxamide] | 15 | 40 | 2 | 107
Cc1cc(N2CCC(CN3CCC(n4ccc5c(N6CCC(=O)NC6=O)cccc54)CC3)CC2)ccc1C(=O)NC1CCN(c2ccc(Cl)c3c(C#N)c[nH]c23)CC1 [Example 178, N-[1-(4-Chloro-3-cyano-1H-indol-7-yl)piperidin-4-yl]-4-[4-({4-[4-(2,4-dioxo-1,3-diazinan-1-yl)-1H-indol-1-yl]piperidin-1-yl}methyl)piperidin-1-yl]-2-methylbenzamide] | 2 | 107 | 2 | 106
N#Cc1c[nH]c2c(N3CCC(NC(=O)c4ccc(N5CCC(CN6CCC(n7ccc8c(N9CCC(=O)NC9=O)cccc87)CC6)CC5)nn4)CC3)ccc(Cl)c12 [Example 179, N-[1-(4-Chloro-3-cyano-1H-indol-7-yl)piperidin-4-yl]-6-[4-({4-[4-(2,4-dioxo-1,3-diazinan-1-yl)-1H-indol-1-yl]piperidin-1-yl}methyl)piperidin-1-yl]pyridazine-3-carboxamide] | 1 | 108 | 1 | 103
